Assay results from patent US4668627A, “Novel antibiotic compound” (Kureha Kagaku Kogyo Kabushiki Kaisha, priority 1982, dated 1987).
≈ marks a conversion by molar mass, not a printed value.

What was measured:
[1] = test system: Peptostreptococcus micros; test: MIC, agar dilution, nutrient agar medium; format: cell-based; details: Parvimonas micra
[2] = test system: Penicillium funiculosum IFO 6345; test: MIC, agar dilution, nutrient agar medium; format: cell-based; details: Talaromyces funiculosus, IFO6345
[3] = test system: Proteus mirabilis IFO 3849; test: MIC, agar dilution, nutrient agar medium; format: cell-based; details: IFO3849
mouse = test: acute toxicity to mouse, intraperitoneal; format: in vivo; details: intraperitoneally, 100 mg/kg
[4] = test system: Microsporum gypseum IFO 5948; test: MIC, agar dilution, nutrient agar medium; format: cell-based; details: Nannizzia gypsea, IFO5948
Salmonella anatum 1 = test: MIC, agar dilution, nutrient agar medium; format: cell-based; details: Salmonella enterica
[5] = test system: various gram-positive and gram-negative bacteria; test: antibacterial activity (general statement); format: cell-based
Peptococcus aerogenes = test: MIC, agar dilution, nutrient agar medium; format: cell-based; details: Peptoniphilus asaccharolyticus
[6] = test system: Peptostreptococcus parvulus; test: MIC, agar dilution, nutrient agar medium; format: cell-based; details: Lancefieldella parvula
[7] = test system: Proteus morganii IFO 3168; test: MIC, agar dilution, nutrient agar medium; format: cell-based; details: Morganella morganii, IFO3168
[8] = test system: Serratia marcescens IAM 1065; test: MIC, agar dilution, nutrient agar medium; format: cell-based; details: IAM1065
[9] = test system: Xanthomonas oryzae IAM 1657; test: microbe, parasite or virus in culture; format: cell-based; details: IAM1657
[10] = test system: Pseudomonas aeruginosa IFO 3080; test: MIC, agar dilution, nutrient agar medium; format: cell-based; details: IFO3080
[11] = test system: Proteus vulgaris IFO 3167; test: MIC, agar dilution, nutrient agar medium; format: cell-based; details: IFO3167
[12] = test system: Aerobacter aerogenes ATCC 8724; test: MIC, agar dilution, nutrient agar medium; format: cell-based; details: Klebsiella aerogenes, ATCC8724
[13] = test system: Klebsiella pneumoniae IFO 12015; test: MIC, agar dilution, nutrient agar medium; format: cell-based; details: IFO12015
Erwinia aroidae IAM 1068 = test: MIC, agar dilution, nutrient agar medium; format: cell-based; details: IAM1068
[14] = test system: Trichophyton interdigitale; test: MIC, agar dilution, nutrient agar medium; format: cell-based
[15] = test system: Proteus inconstans IFO 12930; test: MIC, agar dilution, nutrient agar medium; format: cell-based; details: Providencia alcalifaciens, IFO12930
[16] = test system: Aspergillus oryzae IAM 2732; test: MIC, agar dilution, nutrient agar medium; format: cell-based; details: IAM2732
[17] = test system: Staphylococcus aureus 209 p; test: MIC, agar dilution, nutrient agar medium; format: cell-based
[18] = test system: Bacillus subtilis PCI 219; test: MIC, agar dilution, nutrient agar medium; format: cell-based; details: PCI219
[19] = test system: Salmonella abortusequi ATCC 9842; test: MIC, agar dilution, nutrient agar medium; format: cell-based; details: Salmonella enterica, ATCC9842
[20] = test system: Lactobacillus acidophilus; test: MIC, agar dilution, nutrient agar medium; format: cell-based
Saccharomyces cerevisiae = test: MIC, agar dilution, nutrient agar medium; format: cell-based
[21] = test system: Micrococcus luteus PCI 1001; test: MIC, agar dilution, nutrient agar medium; format: cell-based; details: PCI1001
[22] = test system: Trichophyton rubrum IFO 5467; test: MIC, agar dilution, nutrient agar medium; format: cell-based; details: IFO5467
[23] = test system: Aspergillus niger IFO 6342; test: MIC, agar dilution, nutrient agar medium; format: cell-based; details: IFO6342
[24] = test system: Mycobacterium avium IFO 3082; test: MIC, agar dilution, nutrient agar medium; format: cell-based; details: IFO3082
[25] = test system: Candida albicans IAM 4905; test: MIC, agar dilution, nutrient agar medium; format: cell-based; details: IAM4905
[26] = test system: Vibrio tyrogenes IAM 1080; test: MIC, agar dilution, nutrient agar medium; format: cell-based; details: IAM1080
[27] = test system: Vibrio-metshnikov IAM 1039; test: MIC, agar dilution, nutrient agar medium; format: cell-based
[28] = solubility in organic solvents; format: physicochemical
Bacteroides fragilis = test: MIC, agar dilution, nutrient agar medium; format: cell-based
[29] = test system: Escherichia coli K-12 IAM 1264; test: MIC, agar dilution, nutrient agar medium; format: cell-based; details: IAM1264
[30] = test system: Micrococcus lysodeikticus; test: MIC, agar dilution, nutrient agar medium; format: cell-based; details: Micrococcus luteus
Pseudomonas ovalis = test: MIC, agar dilution, nutrient agar medium; format: cell-based; details: Pseudomonas putida
[31] = test system: Aspergillus fumigatus IAM 2155; test: MIC, agar dilution, nutrient agar medium; format: cell-based; details: IAM2155
[32] = test system: Bifidobacterium adolescentis; test: MIC, agar dilution, nutrient agar medium; format: cell-based
[33] = test system: Epidermophyton floccosum IFO 9045; test: MIC, agar dilution, nutrient agar medium; format: cell-based; details: IFO9045
[34] = test system: Streptococcus pyogenes IFO 3340; test: MIC, agar dilution, nutrient agar medium; format: cell-based; details: IFO3340
[35] = test system: Citrobacter freundii IFO 12681; test: MIC, agar dilution, nutrient agar medium; format: cell-based; details: IFO12681
[36] = test system: Corynebacterium equi IFO 3730; test: MIC, agar dilution, nutrient agar medium; format: cell-based; details: Rhodococcus (subgen. Prescottella) equi, IFO3730
[37] = test system: Pseudomonas fluorescens IFO 3903; test: MIC, agar dilution, nutrient agar medium; format: cell-based; details: IFO3903
Eubacterium aerofaciens = test: MIC, agar dilution, nutrient agar medium; format: cell-based; details: Collinsella aerofaciens
Pseudomonas putida T-2 = test: MIC, agar dilution, nutrient agar medium; format: cell-based; details: T2
[38] = test system: Fusobacterium necrophorum; test: MIC, agar dilution, nutrient agar medium; format: cell-based
[39] = test system: Corynebacterium faciens IAM 1079; test: MIC, agar dilution, nutrient agar medium; format: cell-based; details: IAM1079

## [C-]#[N+]C12CC3(/C=C/C(=O)O)OC3C1O2 (stereo not shown) [Antibiotic No. 2188, 3-(6-isocyano-3,7-dioxatricyclo[4.1.0.0^2,4]hept-4-yl)propenoic acid]
[1]
  MIC: 25 µg/mL (≈ 129 µM)
[2]
  MIC: 200 µg/mL (≈ 1040 µM)
[3]
  MIC: 50 µg/mL (≈ 259 µM)
mouse
  acute toxicity: no acute toxicity
[4]
  MIC: 100 µg/mL (≈ 518 µM)
Salmonella anatum 1
  MIC: 12.5 µg/mL (≈ 64.7 µM)
[5]
  antibacterial activity: shows an antibacterial activity against various gram-positive and gram-negative bacteria
Peptococcus aerogenes
  MIC: 25 µg/mL (≈ 129 µM)
[6]
  MIC: 50 µg/mL (≈ 259 µM)
[7]
  MIC: 12.5 µg/mL (≈ 64.7 µM)
[8]
  MIC: > 100 µg/mL
[9]
  MIC: 50 µg/mL (≈ 259 µM)
[10]
  MIC: 100 µg/mL (≈ 518 µM)
[11]
  MIC: 12.5 µg/mL (≈ 64.7 µM)
[12]
  MIC: 50 µg/mL (≈ 259 µM)
[13]
  MIC: 50 µg/mL (≈ 259 µM)
Erwinia aroidae IAM 1068
  MIC: 25 µg/mL (≈ 129 µM)
[14]
  MIC: 100 µg/mL (≈ 518 µM)
[15]
  MIC: 50 µg/mL (≈ 259 µM)
[16]
  MIC: > 200 µg/mL
[17]
  MIC: 6.25 µg/mL (≈ 32.4 µM)
[18]
  MIC: 12.5 µg/mL (≈ 64.7 µM)
[19]
  MIC: 12.5 µg/mL (≈ 64.7 µM)
[20]
  MIC: 200 µg/mL (≈ 1040 µM)
Saccharomyces cerevisiae
  MIC: > 200 µg/mL
[21]
  MIC: 6.25 µg/mL (≈ 32.4 µM)
[22]
  MIC: 50 µg/mL (≈ 259 µM)
[23]
  MIC: > 200 µg/mL
[24]
  MIC: 12.5 µg/mL (≈ 64.7 µM)
[25]
  MIC: > 200 µg/mL
[26]
  MIC: 3.1 µg/mL (≈ 16 µM)
[27]
  MIC: 1.6 µg/mL (≈ 8.28 µM)
[28]; hexane and petroleum ether
  solubility: insoluble
[28]; methanol, ethanol, acetone, ethyl acetate, chloroform and benzene
  solubility: soluble
Bacteroides fragilis
  MIC: 50 µg/mL (≈ 259 µM)
[29]
  MIC: 12.5 µg/mL (≈ 64.7 µM)
[30]
  MIC: 6.25 µg/mL (≈ 32.4 µM)
Pseudomonas ovalis
  MIC: > 100 µg/mL
[31]
  MIC: 100 µg/mL (≈ 518 µM)
[32]
  MIC: 200 µg/mL (≈ 1040 µM)
[33]
  MIC: 50 µg/mL (≈ 259 µM)
[34]
  MIC: 6.25 µg/mL (≈ 32.4 µM)
[35]
  MIC: 12.5 µg/mL (≈ 64.7 µM)
[36]
  MIC: 6.25 µg/mL (≈ 32.4 µM)
[37]
  MIC: 12.5 µg/mL (≈ 64.7 µM)
Eubacterium aerofaciens
  MIC: > 200 µg/mL
Pseudomonas putida T-2
  MIC: 6.25 µg/mL (≈ 32.4 µM)
[38]
  MIC: 50 µg/mL (≈ 259 µM)
[39]
  MIC: 12.5 µg/mL (≈ 64.7 µM)
